From the supplement of paper PMC10307832

Tests used:
Test in all cases: relative viability (nuclei count vs DMSO), 5 days (fraction); higher = more cells survive
NCI-H3122 = tested on: NCI-H3122
In short: (§1)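 Each reported value is a median over duplicate plates. It expresses relative viability: treated-well nuclei count divided by vehicle-well nuclei count. Lung cancer cell lines in 1536-well plates were dosed by pin tool a day after seeding, alone with one drug or with a fixed anchor-drug dose plus five library-drug doses (not always all listed) in √10 steps, and nuclei were counted after 5 days.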

NCI-H596 = tested on: NCI-H596
In short: as §1

PC-3 [JPC-3] = tested on: PC-3 [JPC-3]
In short: as §1

HARA = tested on: HARA
In short: as §1

LK-2 = tested on: LK-2
In short: as §1

NCI-H2228 = tested on: NCI-H2228
In short: as §1

A-427 = tested on: A-427
In short: as §1

SK-MES-1 = tested on: SK-MES-1
In short: as §1

HOP-62 = tested on: HOP-62
In short: as §1

LXF-289 = tested on: LXF-289
In short: as §1

SW 900 = tested on: SW 900
In short: as §1

NCI-H522 = tested on: NCI-H522
In short: as §1

NCI-H1993 = tested on: NCI-H1993
In short: as §1

NCI-H322M = tested on: NCI-H322M
In short: as §1

EMC-BAC-2 = tested on: EMC-BAC-2
In short: as §1

NCI-H1944 = tested on: NCI-H1944
In short: as §1

NCI-H727 = tested on: NCI-H727
In short: as §1

NCI-H2009 = tested on: NCI-H2009
In short: as §1

NCI-H2170 = tested on: NCI-H2170
In short: as §1

SW 1573 = tested on: SW 1573
In short: as §1

ABC-1 = tested on: ABC-1
In short: as §1

NCI-H1792 = tested on: NCI-H1792
In short: as §1

COc1cc2nccc(Oc3ccc(NC(=O)Nc4cc(C)on4)c(Cl)c3)c2cc1OC [Tivozanib] + Cc1nc(Nc2ncc(C(=O)Nc3c(C)cccc3Cl)s2)cc(N2CCN(CCO)CC2)n1 [Dasatinib] (partner 0.075 µM)
relative viability (NCI-H3122; first compound 0.005 µM): 0.986
relative viability (NCI-H3122; first compound 0.01581 µM): 0.821
relative viability (NCI-H3122; first compound 0.05 µM): 0.754
relative viability (NCI-H3122; first compound 0.1581 µM): 0.604
relative viability (NCI-H3122; first compound 0.5 µM): 0.887
relative viability (NCI-H596; first compound 0.005 µM): 0.55
relative viability (NCI-H596; first compound 0.01581 µM): 0.591
relative viability (NCI-H596; first compound 0.05 µM): 0.575
relative viability (NCI-H596; first compound 0.5 µM): 0.522
relative viability (PC-3 [JPC-3]; first compound 0.005 µM): 0.934
relative viability (PC-3 [JPC-3]; first compound 0.01581 µM): 1
relative viability (PC-3 [JPC-3]; first compound 0.05 µM): 0.983
relative viability (PC-3 [JPC-3]; first compound 0.1581 µM): 0.812
relative viability (PC-3 [JPC-3]; first compound 0.5 µM): 0.951
relative viability (HARA; first compound 0.005 µM): 0.242
relative viability (HARA; first compound 0.01581 µM): 0.269
relative viability (HARA; first compound 0.05 µM): 0.286
relative viability (HARA; first compound 0.1581 µM): 0.19
relative viability (HARA; first compound 0.5 µM): 0.251
relative viability (LK-2; first compound 0.005 µM): 0.226
relative viability (LK-2; first compound 0.01581 µM): 0.29
relative viability (LK-2; first compound 0.05 µM): 0.289
relative viability (LK-2; first compound 0.1581 µM): 0.214
relative viability (LK-2; first compound 0.5 µM): 0.23
relative viability (NCI-H2228; first compound 0.005 µM): 0.431
relative viability (NCI-H2228; first compound 0.01581 µM): 0.532
relative viability (NCI-H2228; first compound 0.05 µM): 0.551
relative viability (NCI-H2228; first compound 0.1581 µM): 0.445
relative viability (NCI-H2228; first compound 0.5 µM): 0.524
relative viability (A-427; first compound 0.005 µM): 0.645
relative viability (A-427; first compound 0.01581 µM): 0.669
relative viability (A-427; first compound 0.05 µM): 0.699
relative viability (A-427; first compound 0.1581 µM): 0.538
relative viability (A-427; first compound 0.5 µM): 0.686
relative viability (SK-MES-1; first compound 0.005 µM): 0.288
relative viability (SK-MES-1; first compound 0.01581 µM): 0.404
relative viability (SK-MES-1; first compound 0.05 µM): 0.442
relative viability (SK-MES-1; first compound 0.1581 µM): 0.332
relative viability (SK-MES-1; first compound 0.5 µM): 0.416
relative viability (HOP-62; first compound 0.005 µM): 0.638
relative viability (HOP-62; first compound 0.01581 µM): 0.668
relative viability (HOP-62; first compound 0.05 µM): 0.633
relative viability (HOP-62; first compound 0.1581 µM): 0.583
relative viability (HOP-62; first compound 0.5 µM): 0.698
relative viability (LXF-289; first compound 0.005 µM): 0.214
relative viability (LXF-289; first compound 0.01581 µM): 0.203
relative viability (LXF-289; first compound 0.05 µM): 0.279
relative viability (LXF-289; first compound 0.1581 µM): 0.264
relative viability (LXF-289; first compound 0.5 µM): 0.216
relative viability (SW 900; first compound 0.005 µM): 0.566
relative viability (SW 900; first compound 0.01581 µM): 0.53
relative viability (SW 900; first compound 0.05 µM): 0.67
relative viability (SW 900; first compound 0.1581 µM): 0.426
relative viability (SW 900; first compound 0.5 µM): 0.45
relative viability (NCI-H522; first compound 0.005 µM): 0.731
relative viability (NCI-H522; first compound 0.01581 µM): 0.9
relative viability (NCI-H522; first compound 0.05 µM): 0.836
relative viability (NCI-H522; first compound 0.1581 µM): 0.845
relative viability (NCI-H522; first compound 0.5 µM): 0.74
relative viability (NCI-H1993; first compound 0.005 µM): 0.609
relative viability (NCI-H1993; first compound 0.01581 µM): 0.605
relative viability (NCI-H1993; first compound 0.05 µM): 0.692
relative viability (NCI-H1993; first compound 0.1581 µM): 0.496
relative viability (NCI-H1993; first compound 0.5 µM): 0.504
relative viability (NCI-H322M; first compound 0.005 µM): 0.26
relative viability (NCI-H322M; first compound 0.01581 µM): 0.241
relative viability (NCI-H322M; first compound 0.05 µM): 0.272
relative viability (NCI-H322M; first compound 0.1581 µM): 0.249
relative viability (NCI-H322M; first compound 0.5 µM): 0.254
relative viability (EMC-BAC-2; first compound 0.005 µM): 0.313
relative viability (EMC-BAC-2; first compound 0.01581 µM): 0.314
relative viability (EMC-BAC-2; first compound 0.05 µM): 0.313
relative viability (EMC-BAC-2; first compound 0.1581 µM): 0.273
relative viability (EMC-BAC-2; first compound 0.5 µM): 0.237
relative viability (NCI-H1944; first compound 0.005 µM): 0.236
relative viability (NCI-H1944; first compound 0.01581 µM): 0.246
relative viability (NCI-H1944; first compound 0.05 µM): 0.208
relative viability (NCI-H1944; first compound 0.1581 µM): 0.192
relative viability (NCI-H1944; first compound 0.5 µM): 0.208
relative viability (NCI-H727; first compound 0.005 µM): 0.339
relative viability (NCI-H727; first compound 0.01581 µM): 0.33
relative viability (NCI-H727; first compound 0.05 µM): 0.44
relative viability (NCI-H727; first compound 0.1581 µM): 0.328
relative viability (NCI-H727; first compound 0.5 µM): 0.451
relative viability (NCI-H2009; first compound 0.005 µM): 0.31
relative viability (NCI-H2009; first compound 0.01581 µM): 0.299
relative viability (NCI-H2009; first compound 0.05 µM): 0.333
relative viability (NCI-H2009; first compound 0.1581 µM): 0.262
relative viability (NCI-H2009; first compound 0.5 µM): 0.22
relative viability (NCI-H2170; first compound 0.005 µM): 0.599
relative viability (NCI-H2170; first compound 0.01581 µM): 0.494
relative viability (NCI-H2170; first compound 0.05 µM): 0.616
relative viability (NCI-H2170; first compound 0.1581 µM): 0.348
relative viability (NCI-H2170; first compound 0.5 µM): 0.569
relative viability (SW 1573; first compound 0.005 µM): 0.534
relative viability (SW 1573; first compound 0.01581 µM): 0.566
relative viability (SW 1573; first compound 0.05 µM): 0.46
relative viability (SW 1573; first compound 0.1581 µM): 0.513
relative viability (SW 1573; first compound 0.5 µM): 0.381
relative viability (ABC-1; first compound 0.005 µM): 0.649
relative viability (ABC-1; first compound 0.01581 µM): 0.583
relative viability (ABC-1; first compound 0.05 µM): 0.729
relative viability (ABC-1; first compound 0.1581 µM): 0.489
relative viability (ABC-1; first compound 0.5 µM): 0.323
relative viability (NCI-H1792; first compound 0.005 µM): 0.77
relative viability (NCI-H1792; first compound 0.01581 µM): 0.819
relative viability (NCI-H1792; first compound 0.05 µM): 0.815
relative viability (NCI-H1792; first compound 0.1581 µM): 0.843
relative viability (NCI-H1792; first compound 0.5 µM): 0.848
